Tests used:
[1] = target: T1, AT2 receptor (rabbit uterus receptor preparations) (Oryctolagus cuniculus, UniProt G1T351); assay: displacement of 3H-angiotensin II from rabbit uterus receptor preparations; type: binding; conditions: read-out: IC50 Values in Rabbit Uterine Preparations
T1 construct: cell membrane preparations derived from rabbit uterus and corpus luteum; from tissue; host or cells: rabbit uterus, cell membrane preparation
T1 sequence (G1T351 1-363): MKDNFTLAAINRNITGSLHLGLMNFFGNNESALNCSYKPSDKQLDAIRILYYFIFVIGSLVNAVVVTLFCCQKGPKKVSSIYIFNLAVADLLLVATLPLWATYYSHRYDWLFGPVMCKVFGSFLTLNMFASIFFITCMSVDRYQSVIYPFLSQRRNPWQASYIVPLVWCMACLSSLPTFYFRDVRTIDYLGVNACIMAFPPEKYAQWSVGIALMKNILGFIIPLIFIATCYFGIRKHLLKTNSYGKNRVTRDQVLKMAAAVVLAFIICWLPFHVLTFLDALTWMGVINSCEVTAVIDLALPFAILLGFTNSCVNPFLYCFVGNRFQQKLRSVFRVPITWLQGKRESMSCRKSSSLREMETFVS
Description: AT2 receptors are known to exist in organs of the female reproductive system. […] More specifically, AT2 receptors are densely located on granulosa cells in atretic follicles of the ovary.

[2] = target: T2, AT2 receptor (whole rat brain) (Rattus norvegicus, UniProt P35351); assay: angiotensin II receptor binding in whole rat brain (DTT protocol)
T2 construct: IC50 Values in whole Rat Brain Preparations; from tissue; host or cells: whole rat brain
T2 sequence (P35351 1-363): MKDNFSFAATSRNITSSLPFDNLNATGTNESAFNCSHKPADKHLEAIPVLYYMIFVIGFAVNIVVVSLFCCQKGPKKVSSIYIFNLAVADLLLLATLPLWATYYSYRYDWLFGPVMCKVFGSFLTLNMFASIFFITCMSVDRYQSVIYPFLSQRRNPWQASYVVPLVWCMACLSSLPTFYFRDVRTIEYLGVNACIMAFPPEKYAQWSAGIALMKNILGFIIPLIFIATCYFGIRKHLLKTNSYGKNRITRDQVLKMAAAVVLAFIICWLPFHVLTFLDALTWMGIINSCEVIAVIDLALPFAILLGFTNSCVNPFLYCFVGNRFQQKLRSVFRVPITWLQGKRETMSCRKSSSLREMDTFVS
Description: Since receptor-specific binding in whole brain is low and is a mixture of two subtypes, an alternative protocol (Bennett and Snyder, Eur. J. Pharmacol., 67, 11-25) was used. This method includes DTT and thereby eliminates binding at AT1 receptors, thus-allowing evaluation of AT2 receptor events.

[3] = tested on: rat striatum acetylcholine (ACh); assay: effect on rat striatal acetylcholine (ACh) levels; type: in vivo; conditions: for ACh concentration, rat striatum: vehicle 61.0 ± 2.33; for ACh, rat striatum, time course: control 65.4 ± 2.47
Protocol: ACh concentrations were determined as described below. Each
Results were analyzed by a oneway

[4] = tested on: angiotensin II receptors (AT1 and AT2), rat brain regions; assay: displacement of 125I-angiotensin II from receptor preparations of rat brain regions; type: binding
Protocol: The concentration of all three antagonist compounds in these experiments is 1 μM (above the maximal effect concentration).

[5] = tested on: angiotensin II receptors (AT1/AT2) of corpus luteum; assay: inhibition of 125I-angiotensin II binding, corpus luteum; set-up: species or system rabbit; conditions: 1 μM; 125I-angiotensin II; data from Warner-Lambert Co.
[6] = estrous cycles in the mature female rat; type: in vivo; conditions: for Length of cycles: Pre Rx 4; for Number of cycles observed: Pre Rx 10
Protocol: Female rats underwent vaginal smearing every morning for 5 weeks; rats with regular 4-day cycles (proestrus, estrus, metestrus, diestrus) were chosen for further study. Groups of rats (n=5) were implanted with Alzet osmotic minipumps (Model 2ML2) containing Example 1 or vehicle on the afternoon of estrus (approximately 2 PM). Drug-treated animals received 30 mg/kg/day Example I for 14 days. Cycles were continually monitored throughout the treatment period and for an additional 20 to 22 days posttreatment.
Vehicle-treated animals continued to cycle in a 4-day pattern throughout the study.

[7] = tested on: angiotensin II receptors (AT1/AT2) of granulosa cell; conditions: cited from earlier work
[8] = tested on: AT2 receptor, ovarian cells; conditions: Pucell et al., Endocrinology 1991; cited from earlier work
[9] = tested on: rat hippocampus acetylcholine (ACh); assay: effect on rat hippocampal acetylcholine (ACh) levels; conditions: 30 mg/kg IP, 0.5 h; ± SEM; vehicle 23.9 ± 2.39; * p < 0.05
Protocol: Thirty minutes after dosing, the rats were sacrificed by exposure to microwave irradiation. […] Haloperidol (2 mg/kg, IP) provides a positive control.
dosing ACh concentrations were determined as described below.

[10] = effect on renal free water clearance in anesthetized dogs; conditions: for Free Water Clearance: predose -0.24 ± 0.05, mean ± SE
Description: Dogs were anesthetized with sodium pentobarbital after an overnight fast. Animals were placed on a prewarmed surgical table, intubated and prepared for renal clearance experiments. Femoral arteries were cannulated for aortic blood pressure measurements and for blood sampling. A femoral vein was cannulated and used for the infusion of inulin. A left flank incision was made to expose the kidney and ureter. An electromagnetic flow probe was placed on the left renal artery and the left ureter was cannulated for urine collection. An intrarenal infusion of 5% dextrose in water (D5W, 50 μL/min) was administered throughout the protocol except during drug treatment intervals. A priming dose of 50 mL D5W containing 200 mg/kg insulin was administered to each dog via the femoral vein catheter and then followed by a sustained infusion of inulin in D5W (15 mg/mL, 0.075 mL/min/kg).
A clearance consisted of a timed urine collection with a midpoint blood sample. […] These last two clearances were designated as postdose.
Plasma and urinary electrolytes were determined with an ion selective electrode analyzer. Urine and plasma inulin concentrations were assayed using an anthrone colorimetric method (Davidson, et al, J. Lab and Clin. Med., 1963, 62, 351-356). Renal clearances and fractional excretion were calculated using standard formulas (Vander, Renal Physiology, 4th ed, pp 44-52 (1991)).

[11] = 10 mg/kg IP, 0.5 h, ± SEM, * p < 0.05

Cc1cc(Cn2cnc3c2C[C@@H](C(=O)O)N(C(=O)C(c2ccccc2)c2ccccc2)C3)ccc1N(C)C [Example 1]
IC50 [1]: 21 nM
IC50 [2]: 200 nM
ACh concentration, rat striatum ([3]; 1 mg/kg IP, 0.5 h, ± SEM): 57.9 ± 1.86 nM/g
ACh concentration, rat striatum [3, 11]: 48.1 ± 0.99 nM/g
ACh, rat striatum, time course [3, 11]: 37.6 ± 2.10 nM/g
ACh, rat striatum, time course ([3]; 10 mg/kg IP, 1.0 h, ± SEM, * p < 0.05): 47.9 ± 2.24 nM/g
ACh, rat striatum, time course ([3]; 10 mg/kg IP, 3.0 h, ± SEM, * p < 0.05): 50.2 ± 4.53 nM/g
ACh, rat striatum, time course ([3]; 10 mg/kg IP, 6.0 h, ± SEM): 55.8 ± 4.28 nM/g
ACh, rat striatum, time course ([3]; 10 mg/kg IP, 24.0 h, ± SEM): 61.3 ± 2.30 nM/g
time of peak ACh lowering effect ([3]; 10 mg/kg, IP): 0.5 h
time for ACh levels to return to control levels ([3]; 10 mg/kg, IP, gradual return): 24 h
ACh, Striatum (Table V) ([3]; 30 mg/kg IP, 0.5 h, ± SEM, vehicle 52.9 ± 1.72, * p < 0.05): 39.7 ± 0.99 nM/g
ACh concentration, rat striatum ([3]; 30 mg/kg IP, 0.5 h, ± SEM, * p < 0.05): 37.6 ± 2.10 nM/g
ACh concentration, rat striatum ([3]; 60 mg/kg IP, 0.5 h, ± SEM, * p < 0.05): 41.1 ± 1.89 nM/g
striatal ACh lowering compared with haloperidol (in words) ([3]; IP, haloperidol 2 mg/kg): matched the efficacy of haloperidol
ACh content in brain tissues (in words) ([3]; Tables IV, V and VI): lowers ACh content in brain tissues in a dose dependant and time dependant manner
displacement of 125I-angiotensin II in rat brain areas (in words) ([4]; 1 μM per text, each area of brain examined): displace a fraction of the ^125 I-angiotensin II that is displaced by saralasin
125I-Angiotensin II Bound, Brain Stem ([4]; rat brain stem, antagonist 10 μM, total 2124): 1258 cpm
125I-Angiotensin II Bound, Cerebellum ([4]; rat cerebellum, antagonist 10 μM, total 571): 446 cpm
125I-Angiotensin II Bound, Cortex ([4]; rat cortex, antagonist 10 μM, total 766): 507 cpm
125I-Angiotensin II Bound, Cortical Neurons ([4]; rat cortical neurons, antagonist 10 μM, total 2647): 2118 cpm
125I-Angiotensin II Bound, Striatal Membrane ([4]; rat striatal membrane, antagonist 10 μM, total 2462): 1838 cpm
% Inhibition with 1 μM Antagonist, Corpus luteum [5]: 3%
cyclicity during treatment (in words) ([6]; 30 mg/kg/day, 14 days): acyclic during the 14-day treatment interval
cyclicity posttreatment (in words) ([6]; 20 to 22 days posttreatment): resumed cycling during the posttreatment observation period
Length of cycles ([6]; Post Rx (20 to 22 days posttreatment), vehicle Post Rx 4): 3.9 days
Number of cycles observed ([6]; Post Rx (20 to 22 days posttreatment), vehicle Post Rx 5): 4
Length of cycles ([6]; Rx: 30 mg/kg/day, 14 days, osmotic minipump, vehicle Rx 4.5): 14.4 days
Number of cycles observed ([6]; Rx: 30 mg/kg/day, 14 days, osmotic minipump, vehicle Rx 3): 1
effect on menstrual cycle (in words) ([6]; reproductive studies in rats): interrupts the menstrual cycle
% Inhibition with 1 μM Antagonist, Granulosa cell ([7]; 1 μM, 125I-angiotensin II, adapted from Pucell et al., Endocrinology 1991): 97%
displacement of 125I-angiotensin II, granulosa cells (in words) ([7]; Table IX): displaces nearly all of the 125I-angiotensin II
AT2 antagonism in ovarian cells [8]: AT2 antagonistic properties
ACh, Hippocampus (Table V) [9]: 15.1 ± 1.55 nM/g
Free Water Clearance, Change from Predose ([10]; 60 min, dose 3 intrarenal): +54%
Free Water Clearance, Change from Predose ([10]; 90 min, dose 30 intrarenal): +150%
Free Water Clearance ([10]; 90 min, dose 30 intrarenal, * p = 0.097 vs vehicle): +0.11 ± 0.19 mL/min
Free Water Clearance, Change from Predose ([10]; 120 min, dose 300 intrarenal): +370%
Free Water Clearance ([10]; 120 min, dose 300 intrarenal, ** p = 0.015 vs vehicle): +0.64 ± 0.30 mL/min
Free Water Clearance ([10]; 150 min, postdose (dose 0, after washout), *** p = 0.002 vs vehicle): +0.29 ± 0.10 mL/min
Free water clearance, increase from predose levels ([10]; intrarenal infusion, cumulative doses 3, 30 and 300 μg/kg/min): up to 370%
free water clearance (in words) ([10]; versus vehicle control): increase in free water clearance that is dose dependant and statistically significant when compared to the vehicle control
